This is an account of results in patent publication US20250019352A1, “PHARMACOLOGICAL AGENTS FOR TREATING OPHTHALMIC DISEASES” (Plex Pharmaceuticals, Inc., priority 2021, published 2025).

The target of experiment [1] is T1, recombinant human hAAC (human αA-crystallin) (Homo sapiens, UniProt P02489).
T1 sequence (P02489 1-173): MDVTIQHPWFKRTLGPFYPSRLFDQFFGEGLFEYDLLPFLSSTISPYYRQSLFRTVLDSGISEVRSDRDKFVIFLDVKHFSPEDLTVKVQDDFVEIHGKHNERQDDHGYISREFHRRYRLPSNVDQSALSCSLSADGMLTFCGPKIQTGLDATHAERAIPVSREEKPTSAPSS
As to the kind of experiment: Protection from Ca+2 and UVC induced aggregation of recombinant human alpha-A crystallin (absorbance / SDS-PAGE). In kind it is biochemical. Conditions: for Gel: SDS-PAGE, unaggregated AAC after UVC, compounds tested at 500 μM; for EC50: concentration needed to prevent 50% of hAAC from forming HMW aggregates when exposed to UVC in presence of Ca+2, calculated using SDS-PAGE, read-out: EC50 Biochemical. As to the method: FIG. 2A: SDS-PAGE showing the protection against UVC induced aggregation of human α-A-crystallin (hAAC) by disulfide and related SDMs. Shown are also efficacy of non-related SDMs. The compounds were tested at 500 μM concentration.
The potency of compounds to provide protection from Ca^+2 and UVC induced aggregation of alpha-A crystalline (ACC) was measured by monitoring the effect of Ca^+2 and UVC on recombinant human hAAC. hAAC forms HMW aggregates when exposed to UVC radiation in the presence of 10 mM Ca^+2. The aggregates lead to increased absorbance. Stock compound solutions (made in DMSO) were added to recombinant hAAC (100 ug/ml) at desired concentrations. The hAAC, with the added compound, was incubated at room temperature for 1 hour, followed by addition of 10 μl of 200 mM CaCl2) and further incubation for 5 minutes. Then, absorbance was recorded at 400 nm (T=0 Minute) followed by exposure to UVC (254 nm, 480 mJ/cm^2 per minute). Absorbance was measured again at 15 and 30 minutes. To control for compound related effects, assays were performed with or without AAC in triplicate. Percent protection or change in fold-decrease in aggregation were computed using the measured differences in absorbance. DMSO was used as control. EC50 values were calculated using the SDS-PAGE, which is defined as the concentration of SMD needed to prevent 50% of hAAC from forming HMW aggregates when exposed to UVC in presence of Ca^+2 [FIGS. 2A-2B].

Another experiment has as its system porcine lenses. As to the kind of experiment: Ex vivo lens culture: protection from UV-induced opacification. Conditions: porcine lenses cultured ex vivo. An excerpt:
To predict whether SMDs could prevent opacification in animal models and ultimately in human patients, we assessed their ability to protect intact lenses cultured ex vivo from UV-induced opacification. As fresh human lenses are difficult to obtain, porcine lenses were used for the ex vivo studies. Porcine lenses are easy to acquire (Sierra for Medical Science, Inc., Whittier, CA) and have been used previously in ex vivo models of Presbyopia. As predicted by our biochemical assays, SMDs prevents UV-induced opacification of porcine lenses ex vivo.

As a reminder, the EC50 is the concentration giving half of the maximal effect.

For `O=C(O)c1ccc(SSc2ccc(C(=O)O)cc2)cc1` [Compound 1], the Gel result in experiment [1] was “++ (″++″ score = >50% unaggregated AAC)”.

As for `Nc1ccc(SSc2ccc(N)cc2)cc1` [Compound 2], in experiment [1], the Gel result was “++ (″++″ score = >50% unaggregated AAC)”.

With `O=C(O)c1ccccc1SSc1ccccc1C(=O)O` [Compound 4], in experiment [1], the Gel result is given as “++ (″++″ score = >50% unaggregated AAC)” and the EC50 was 395 µM.

Turning to `Nc1cccc(SSc2cccc(N)c2)c1` [Compound 5], in experiment [1], the Gel result was “++ (″++″ score = >50% unaggregated AAC)”.

For the molecule `Fc1ccccc1SSc1ccccc1F` [Compound 7], in experiment [1], the Gel result is given as “+ (″+″ score = >20% to 50% unaggregated AAC)”.

On to `CN/C(=C\[N+](=O)[O-])NCCSCc1c[nH]c(CN(C)C)n1` [Compound 11], for which the Ex-vivo entry with porcine lenses is “++ (″++″ score = >50% unaggregated AAC)”. Moreover, in experiment [1], the Gel entry is “++ (″++″ score = >50% unaggregated AAC)” and the EC50 is 495 µM.

Take `O=C(O)c1cc(SSc2ccc([N+](=O)[O-])c(C(=O)O)c2)ccc1[N+](=O)[O-]` [Compound 13]: in the experiment on porcine lenses, the Ex-vivo entry is “++ (″++″ score = >50% unaggregated AAC)”. Besides, in experiment [1], the Gel result is “++ (″++″ score = >50% unaggregated AAC)” and the EC50 is 191 µM.

`O=[N+]([O-])c1cc(C(F)(F)F)ccc1SSc1ccc(C(F)(F)F)cc1[N+](=O)[O-]` [Compound 14]: the Gel entry in experiment [1] is recorded as “+ (″+″ score = >20% to 50% unaggregated AAC)”.

Consider `COc1ccc(SSc2ccc(OC)cc2)cc1` [Compound 15], for which the Gel entry in experiment [1] is recorded as “+ (″+″ score = >20% to 50% unaggregated AAC)”.

Take `CC(=O)Nc1ccc(SSc2ccc(NC(C)=O)cc2)cc1` [Compound 16]: the Gel result in experiment [1] is “+ (″+″ score = >20% to 50% unaggregated AAC)”.

For the molecule `O=[N+]([O-])c1cc(S(=O)(=O)C(F)(F)C(F)(F)F)ccc1SSc1ccc(S(=O)(=O)C(F)(F)C(F)(F)F)cc1[N+](=O)[O-]` [Compound 18], the Gel entry in experiment [1] is reported as “+ (″+″ score = >20% to 50% unaggregated AAC)”.

Take `COC(=O)c1ccccc1SSc1ccccc1C(=O)OC` [Compound 21]: the Gel entry in experiment [1] is “+ (″+″ score = >20% to 50% unaggregated AAC)”.

With `CCCNS(=O)(=O)c1cccc(C(C)=O)c1` [Compound 22], in experiment [1], the Gel entry is “+ (″+″ score = >20% to 50% unaggregated AAC)”.

With `O=C(O)CCNS(=O)(=O)c1ccc(F)cc1` [Compound 23], in experiment [1], the Gel result was “+ (″+″ score = >20% to 50% unaggregated AAC)”.

Take `CC(C)NS(=O)(=O)c1cccc(C(=O)O)c1` [Compound 24]: the Ex-vivo entry with porcine lenses was “++ (″++″ score = >50% unaggregated AAC)”. The Gel entry in experiment [1] was “+ (″+″ score = >20% to 50% unaggregated AAC)”.

As for `O=C(O)c1cccc(S(=O)(=O)NC2CC2)c1` [Compound 25], in the experiment on porcine lenses, the Ex-vivo entry is reported as “++ (″++″ score = >50% unaggregated AAC)”. The Gel result in experiment [1] was “+ (″+″ score = >20% to 50% unaggregated AAC)”.

Consider `O=C(O)c1cc(S(=O)(=O)N2CCCC2)ccc1O` [Compound 26], for which the Gel result in experiment [1] is reported as “++ (″++″ score = >50% unaggregated AAC)”.

`O=C(O)c1ccc(S(=O)(=O)N2CCCCC2)cc1` [Compound 27]: in experiment [1], the Gel entry was “+ (″+″ score = >20% to 50% unaggregated AAC)”.

Take `O=C(O)c1cccc(S(=O)(=O)N2CCCCC2)c1` [Compound 28]: the Gel result in experiment [1] is reported as “+ (″+″ score = >20% to 50% unaggregated AAC)”.

For the molecule `O=C(O)c1cccc(S(=O)(=O)N2CCOCC2)c1` [Compound 29], the Gel entry in experiment [1] is reported as “+ (″+″ score = >20% to 50% unaggregated AAC)”.

Consider `O=C(O)Cc1ccc(S(=O)(=O)N2CCOCC2)s1` [Compound 30], for which the Gel entry in experiment [1] was “++ (″++″ score = >50% unaggregated AAC)”.

For `CNC(C[N+](=O)[O-])NCCSCc1ccc(CN(C)C)o1.Cl` (centres unmarked) [Compound 31], in experiment [1], the Gel entry was “+ (″+″ score = >20% to 50% unaggregated AAC)”.

Take `CN=C(NC#N)NCCSCc1csc(N=C(C)C)n1` [Compound 32]: in experiment [1], the Gel result is given as “++ (″++″ score = >50% unaggregated AAC)” and the EC50 is 410 µM.

`Cc1cc(N2CCSSCC2)ncc1[N+](=O)[O-]` [Compound 34]: the Gel entry in experiment [1] is on record as “++ (″++″ score = >50% unaggregated AAC)”.

On to `Cc1ccnc(N2CCSSCC2)c1[N+](=O)[O-]` [Compound 35], for which, in experiment [1], the Gel entry is given as “++ (″++″ score = >50% unaggregated AAC)”.

Turning to `Nc1nc(N2CCSSCC2)ncc1[N+](=O)[O-]` [Compound 36], the Gel entry in experiment [1] is on record as “+ (″+″ score = >20% to 50% unaggregated AAC)”.

Turning to `O=C1NC(=O)c2cc(NC(=O)N3CCSSCC3)ccc21` [Compound 37], in experiment [1], the Gel entry is “++ (″++″ score = >50% unaggregated AAC)” and the EC50 was 370 µM.

As for `Cc1nn(CCC(=O)N2CCSSCC2)c(C)c1[N+](=O)[O-]` [Compound 38], the Gel result in experiment [1] was “+ (″+″ score = >20% to 50% unaggregated AAC)”.

For the molecule `O=C(CSSCC(=O)Nc1cccc([N+](=O)[O-])c1)Nc1cccc([N+](=O)[O-])c1` [Compound 40], in experiment [1], the Gel entry was “+ (″+″ score = >20% to 50% unaggregated AAC)” and the EC50 is 365 µM.

In the case of `Cc1ccc(NC(=O)C(C)SSC(C)C(=O)Nc2ccc(C)c(F)c2)cc1F` (centres unmarked) [Compound 41], the Gel entry in experiment [1] is listed as “+ (″+″ score = >20% to 50% unaggregated AAC)”.

In the case of `O=C(O)c1nsnc1NCCSSCCNc1nsnc1C(=O)O` [Compound 42], the Gel entry in experiment [1] is on record as “+ (″+″ score = >20% to 50% unaggregated AAC)”.

On to `O=C(O)CCC(=O)Nc1ccc(SSc2ccc(NC(=O)CCC(=O)O)cc2)cc1` [Compound 43], for which the Gel result in experiment [1] is given as “++ (″++″ score = >50% unaggregated AAC)”.

For the molecule `O=C(CSSCC(=O)Nc1ccc2ccccc2c1)Nc1ccc2ccccc2c1` [Compound 44], in experiment [1], the Gel entry is “++ (″++″ score = >50% unaggregated AAC)”.

As to `O=C(NCCOc1ccccc1)SSC(=O)NCCOc1ccccc1` [Compound 45], the Gel entry in experiment [1] is “+ (″+″ score = >20% to 50% unaggregated AAC)”.

Turning to `Cc1ncc(CSSCc2cnc(C)c(O)c2CO)c(CO)c1O` [Compound 46], in experiment [1], the Gel result is listed as “+ (″+″ score = >20% to 50% unaggregated AAC)”.

Turning to `O=C(CSSCC(=O)Nc1cccc2ccccc12)Nc1cccc2ccccc12` [Compound 48], in experiment [1], the Gel result is reported as “+ (″+″ score = >20% to 50% unaggregated AAC)”.

With `N#Cc1cc(C(=O)O)c(O)nc1SSc1nc(O)c(C(=O)O)cc1C#N` [Compound 50], in experiment [1], the Gel result is “+ (″+″ score = >20% to 50% unaggregated AAC)”.

On to `CC(C)Cc1ccccc1NC(=O)CSSCC(=O)Nc1ccccc1CC(C)C` [Compound 51], for which, in experiment [1], the Gel entry was “++ (″++″ score = >50% unaggregated AAC)”.

On to `CCC1c2ccccc2-c2cc(NC(=O)CSSCC(=O)Nc3ccc4c(c3)c3ccccc3n4CC)ccc21` (centres unmarked) [Compound 54], for which the Gel result in experiment [1] is recorded as “++ (″++″ score = >50% unaggregated AAC)”.

Regarding `COc1ccccc1NC(=O)CSSCC(=O)Nc1ccccc1OC` [Compound 55], the Gel entry in experiment [1] was “++ (″++″ score = >50% unaggregated AAC)”.
